Publication PMC13294250, “An effort to enhance the clinical translatability of caprate-based tablet formulations in gastric peptide delivery” (Drug Delivery and Translational Research, 2025)
Like-named read-outs stand apart in the source and are kept apart here.

Assays:
[1] = CAC and CMC determinations by dynamic light scattering; assay type: physicochemical; details: DLS at 25 °C
Description: Stock solutions of sodium caprate were made in the individual buffers. 10–100 mM phosphate buffer was used for most sample series, while 50 mM sodium borate was used for pH 9 [31]. In the case of meglumine a 20 mM Tris buffer pH 8.5 was used. Samples were prepared with and without 20 mg/ml meglumine. All samples were pH adjusted and filtered through 0.22 μm (Millipore 6830-0021). Dynamic light scattering (DLS) data was acquired at 25 °C by adding 20–25 µL of each sample in triplicates to a 384 well plate Corning® 3540 (Corning, NY, USA). The plate was centrifuged for 5 min at 1200 rpm before analysis to remove any air bubbles from the wells. […] A DynaPro™ Plate Reader and Dynamics™ software version 7 (Wyatt Technology Corp., Santa Barbara, CA, USA) was used to collect and analyze the data.

[2] = cited from earlier work
Source text: Given the negative impact of low gastric pH on both in vitro and in vivo performance of C10-based tablets, the use of a pH modifier was investigated to mitigate the acidity of the human stomach. Since C10 is an ionizable compound known to form different colloidal structures dependant on pH, selection of an appropriate pH modifier is paramount. The resulting pH should enable fast disintegration and dissolution of the formulation, whilst securing that the colloidal species formed facilitate the permeation enhancing effect needed for absorption of the macromolecule. Monomeric C10 is presumed to b ...

[3] = sodium carbonate as pH modifier candidate in C10 tablets, oral
Description: On top of elevating the pH, the pH-modifying excipient needs to ensure manufacturability of tablets while being compatible with the API in the formulation. An array of alkaline agents capable of increasing the pH were screened (Figure S2) by addition of the pH modifier in 20 mL of acidic media (0.1 M HCl) with 0.1 M KCl, and 10 mg/mL of C10 at 37 °C, which is close to the physiological condition of experimental animals when C10 tablet formulation is dosed. The volume and concentration of HCl and KCl were selected to replicate the gastric in vivo conditions, whereas C10 was added to mimic the intrinsic buffer capacity of the PE present in the tablet.

[4] = no reference given; cited from earlier work
Source text: Meglumine was selected due to its capability to both raise the pH to the desired level and produce tablets with the required quality. […] In addition, it is an approved pharmaceutical excipient marketed in several oral dosage forms such as telmisartan, repaglinide and rosuvastatine tablets. To identify the most suitable meglumine amount for C10-based tablets, a systematic screening ...

[5] = Screening of the meglumine amount in acidic medium containing C10; assay type: physicochemical; details: 37 °C, pH meter
Description: In addition, it is an approved pharmaceutical excipient marketed in several oral dosage forms such as telmisartan, repaglinide and rosuvastatine tablets. To identify the most suitable meglumine amount for C10-based tablets, a systematic screening was conducted in 20 mL acidic medium (KCl 0.1 M/ HCl 0.025 M, 10 mL + 10 mL of MQ water) reflecting the composition of dog gastric fluid after dosing of water. The medium contained either 50, 100, 200, or 300 mg of C10 to account for different enhancer amounts, and the evolution of pH against added meglumine amount was monitored (Table 1). Since a final pH above 8.5 around the tablet in the stomach is desirable for C10 dissolution and to achieve the single-phased micellar system with high monomeric C10 availability, the corresponding meglumine amount needed to reach pH 8.5 was set as the lower limit for formulation development.
A stock solution of KCl 0.1 M/ HCl 0.025 M, pH = 1.6 was prepared. 10mL of this solution was added to 10 mL of MQ water in tubes containing either 50, 100, 200, or 300 mg of C10 granules. Each solution was gently stirred at 37 °C. Meglumine was added in amounts beyond the calculated neutralization point. pH was recorded using a pH meter PHM 200 (Mettler Toledo). Turbidity/clarity was visually assessed for records.

[6] = 50 mg C10 / 20 mL acidic medium (10 mL KCl 0.1 M/HCl 0.025 M pH 1.6 + 10 mL MQ water)
[7] = 200 mg C10 / 20 mL acidic medium (10 mL KCl 0.1 M/HCl 0.025 M pH 1.6 + 10 mL MQ water)
[8] = 300 mg C10 / 20 mL acidic medium (10 mL KCl 0.1 M/HCl 0.025 M pH 1.6 + 10 mL MQ water)

Question: Which “critical aggregate concentration (CAC) of C10 vesicles” value ([1]; pH lower than approximately 8.5, phosphate buffer, triplicates) does the source give for `CCCCCCCCCC(=O)[O-].[Na+]` [Formulation C10, Sodium caprate] here?
Answer: The value was “around 15 mM”.

Question: What about the “critical micelle concentration (CMC)” value ([2]; pH 9.1) of the same compound?
Answer: The value was 81 mM.

Question: And the “critical micelle concentration (CMC)” value ([2]; pH 11.8)?
Answer: Its value is 102 mM.

Question: With `O=C([O-])[O-].[Na+].[Na+]` [Sodium carbonate] as the compound, how does the “adverse events in dogs” value [3] read?
Answer: The value was “vomiting”.

Question: With `CNC[C@H](O)[C@@H](O)[C@H](O)[C@H](O)CO` [meglumine, Meglumine] as the compound, how does the pKa [4] read?
Answer: The pKa was 9.6.

Question: And the “impact of meglumine on the CMC of C10 (in words)” value ([1]; 20 mM Tris buffer pH 8.5, with and without 20 mg/ml meglumine)?
Answer: The value was “did not show any impact”.

Question: And the “Amount of meglumine (mg) to pH 8.5” value [5, 6]?
Answer: The value was 15 mg.

Question: What about the “Amount of meglumine (mg) to pH 9.5” value [5, 6] of the same compound?
Answer: The value was 25 mg.

Question: What about the “Amount of meglumine (mg) to pH 9.5” value ([5]; 100 mg C10 / 20 mL acidic medium (10 mL KCl 0.1 M/HCl 0.025 M pH 1.6 + 10 mL MQ water)) of the same compound?
Answer: Its value is 60 mg.

Question: And the “Amount of meglumine (mg) to pH 8.5” value [5, 7]?
Answer: The value was 60 mg.

Question: And the “Amount of meglumine (mg) to pH 9.5” value [5, 7]?
Answer: The value was 100 mg.

Question: And the “Amount of meglumine (mg) to pH 8.5” value [5, 8]?
Answer: Its value is 90 mg.

Question: What about the “Amount of meglumine (mg) to pH 9.5” value [5, 8] of the same compound?
Answer: The value was 125 mg.
